Laboratory results taken from patent US9062124B2, “GIP-based mixed agonists for treatment of metabolic disorders and obesity” (priority 2008, dated 2015).
Where a SMILES comes first, the peptide text is derived from it. Bridges are numbered along the chain shown (N, C = ends). [ ]: non-standard residue; d: D form. The star is where a group is joined. Myristoyl = CCCCCCCCCCCCCC(=O)*; Aib = CC(C)(N)C(=O)O

How the values were obtained:
Type in all cases: cell-based
GLP-1 receptor = target: T1, GLP-1 receptor (Homo sapiens, UniProt P43220); assay: cAMP synthesis functional assay (firefly luciferase reporter in HEK293 cells), GLP-1 receptor
T1 construct: expressed in transfected cells; host or cells: HEK293

glucagon receptor = target: T2, glucagon receptor (Homo sapiens, UniProt P47871); assay: cAMP synthesis functional assay (firefly luciferase reporter in HEK293 cells), glucagon receptor; details: for EC50: Glucagon Receptor EC50, cAMP luciferase reporter assay as in Example 16
T2 construct: expressed in transfected cells; host or cells: HEK293

GIP receptor = target: T3, GIP receptor (Homo sapiens, UniProt P48546); assay: cAMP synthesis functional assay (firefly luciferase reporter in HEK293 cells), GIP receptor; details: for EC50: GIP Receptor EC50, cAMP luciferase reporter assay as in Example 16
T3 construct: expressed in transfected cells; host or cells: HEK293
T3 sequence (P48546 22-466): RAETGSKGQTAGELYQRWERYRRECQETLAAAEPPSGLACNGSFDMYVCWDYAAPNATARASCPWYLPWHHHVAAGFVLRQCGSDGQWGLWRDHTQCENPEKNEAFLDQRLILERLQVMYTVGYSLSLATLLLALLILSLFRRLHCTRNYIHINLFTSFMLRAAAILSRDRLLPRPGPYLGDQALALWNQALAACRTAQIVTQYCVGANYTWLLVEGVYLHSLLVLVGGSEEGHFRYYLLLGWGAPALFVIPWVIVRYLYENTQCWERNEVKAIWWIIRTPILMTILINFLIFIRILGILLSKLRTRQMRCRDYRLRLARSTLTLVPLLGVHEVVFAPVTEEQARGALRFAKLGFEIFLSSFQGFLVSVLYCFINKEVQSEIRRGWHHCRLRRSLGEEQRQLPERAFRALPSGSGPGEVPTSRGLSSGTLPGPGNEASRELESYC

[1] = Table 1, relative to the native hormone of the indicated receptor
[2] = GLP-1 Receptor EC50, cAMP luciferase reporter assay as in Example 16
[3] = relative to the standard (Std.) EC50 of the same run
[4] = GLP-1 Receptor EC50, nM, Table 1

T2 sequence (P47871 26-477): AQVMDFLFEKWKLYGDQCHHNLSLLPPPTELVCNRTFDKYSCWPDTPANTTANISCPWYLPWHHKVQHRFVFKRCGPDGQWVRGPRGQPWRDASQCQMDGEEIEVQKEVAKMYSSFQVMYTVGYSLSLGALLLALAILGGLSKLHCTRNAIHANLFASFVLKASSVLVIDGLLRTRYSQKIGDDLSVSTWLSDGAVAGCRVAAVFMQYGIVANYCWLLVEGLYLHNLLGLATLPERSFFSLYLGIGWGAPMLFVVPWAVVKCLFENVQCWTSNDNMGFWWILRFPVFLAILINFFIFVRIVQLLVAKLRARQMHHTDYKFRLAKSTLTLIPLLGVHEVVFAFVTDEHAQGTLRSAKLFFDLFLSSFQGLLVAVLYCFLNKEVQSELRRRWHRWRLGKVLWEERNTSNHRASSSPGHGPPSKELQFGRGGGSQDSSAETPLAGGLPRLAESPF
T1 sequence (P43220 24-463, species assumed): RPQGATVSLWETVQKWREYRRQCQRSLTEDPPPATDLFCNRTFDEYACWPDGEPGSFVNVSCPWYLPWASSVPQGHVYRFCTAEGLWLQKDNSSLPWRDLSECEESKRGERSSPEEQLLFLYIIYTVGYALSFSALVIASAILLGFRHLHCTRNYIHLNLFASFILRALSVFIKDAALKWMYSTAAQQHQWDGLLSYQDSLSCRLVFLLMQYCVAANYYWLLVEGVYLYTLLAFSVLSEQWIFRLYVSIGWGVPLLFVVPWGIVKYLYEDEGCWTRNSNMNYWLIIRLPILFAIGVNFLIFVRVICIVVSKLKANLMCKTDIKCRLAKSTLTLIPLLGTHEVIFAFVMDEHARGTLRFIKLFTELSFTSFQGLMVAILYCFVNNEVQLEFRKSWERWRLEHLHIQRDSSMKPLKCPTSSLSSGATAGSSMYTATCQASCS

Compound	GLP-1 Receptor relative activity (GLP-1 receptor; [1]) [%]	Glucagon Receptor relative activity (glucagon receptor; [1]) [%]	GIP Receptor relative activity (GIP receptor; [1]) [%]	EC50 (GLP-1 receptor; [2]) [nM]	GLP-1 Receptor relative activity (GLP-1 receptor; [3]) [%]	EC50 (glucagon receptor) [pM]	Glucagon Receptor relative activity (glucagon receptor; [3]) [%]	GIP Receptor relative activity (GIP receptor; [3]) [%]	EC50 (GLP-1 receptor; [4]) [nM]	EC50 (GIP receptor) [pM]
CC[C@H](C)[C@H](NC(=O)[C@H](CO)NC(=O)[C@H](Cc1ccc(O)cc1)NC(=O)[C@H](CC(=O)O)NC(=O)[C@H](CO)NC(=O)[C@@H](NC(=O)[C@H](Cc1ccccc1)NC(=O)[C@@H](NC(=O)CNC(=O)[C@H](CCC(N)=O)NC(=O)[C@H](CO)NC(=O)[C@@H](N)Cc1ccc(O)cc1)[C@@H](C)O)[C@@H](C)O)C(=O)N[C@@H](Cc1ccc(O)cc1)C(=O)N[C@@H](CC(C)C)C(=O)N[C@@H](CC(=O)O)C(=O)N[C@@H](CCC(=O)O)C(=O)N[C@@H](CCC(N)=O)C(=O)N[C@@H](C)C(=O)N[C@@H](C)C(=O)N[C@@H](CCCCN)C(=O)N[C@@H](CCC(=O)O)C(=O)N[C@@H](Cc1ccccc1)C(=O)N[C@H](C(=O)N[C@H]1CCC(=O)NCCCC[C@@H](C(=O)NCC(=O)NCC(=O)N2CCC[C@H]2C(=O)N[C@@H](CO)C(=O)N[C@@H](CO)C(=O)NCC(=O)N[C@@H](C)C(=O)N2CCC[C@H]2C(=O)N2CCC[C@H]2C(=O)N2CCC[C@H]2C(=O)N[C@@H](CO)C(N)=O)NC(=O)[C@H](CC(C)C)NC(=O)[C@H](CC(C)C)NC(=O)[C@H](Cc2c[nH]c3ccccc23)NC1=O)C(C)C [mt-157] (H-YSQGTFTSDYSIYLDEQAAKEFVEWLLKGGPSSGAPPPS-NH2; lactam 24-28; N-terminus assumed)	37.04	6.92	4.00							
CCCCCCCCCCCCCC(=O)NCCCC[C@H](NC(=O)[C@H](CC(=O)O)NC(=O)[C@H](CO)NC(=O)[C@@H](NC(=O)[C@H](Cc1ccccc1)NC(=O)[C@@H](NC(=O)CNC(=O)[C@H](CCC(=O)O)NC(=O)C(C)(C)NC(=O)[C@@H](N)Cc1ccc(O)cc1)[C@@H](C)O)[C@@H](C)O)C(=O)N[C@@H](CO)C(=O)N[C@H](C(=O)N[C@@H](Cc1ccc(O)cc1)C(=O)N[C@@H](CC(C)C)C(=O)N[C@@H](CC(=O)O)C(=O)N[C@@H](CCCCN)C(=O)N[C@@H](CCC(N)=O)C(=O)N[C@@H](C)C(=O)N[C@@H](C)C(=O)NC(C)(C)C(=O)N[C@@H](CCC(=O)O)C(=O)N[C@@H](Cc1ccccc1)C(=O)N[C@H](C(=O)N[C@@H](CC(N)=O)C(=O)N[C@@H](Cc1c[nH]c2ccccc12)C(=O)N[C@@H](CC(C)C)C(=O)N[C@@H](CC(C)C)C(=O)N[C@@H](C)C(=O)NCC(N)=O)C(C)C)[C@@H](C)CC [mt-282] (H-Y[Aib]EGTFTSDK(Myristoyl)SIYLDKQAA[Aib]EFVNWLLAG-NH2; N-terminus assumed)				0.0134	44.03	2440	1.18	76.69		
CC[C@H](C)[C@@H]1NC(=O)[C@@H](NC(=O)[C@H](CC(=O)O)NC(=O)[C@H](CC(C)C)NC(=O)[C@H](Cc2ccc(O)cc2)NC(=O)[C@H](CCCCN)NC(=O)[C@H](CO)NC(=O)[C@H](Cc2ccc(O)cc2)NC(=O)[C@H](CC(=O)O)NC(=O)[C@H](CO)NC(=O)[C@@H](NC(=O)[C@H](Cc2ccccc2)NC(=O)[C@@H](NC(=O)CNC(=O)[C@H](CCC(N)=O)NC(=O)[C@H](CO)NC(=O)[C@@H](N)Cc2c[nH]cn2)[C@@H](C)O)[C@@H](C)O)CCC(=O)NCCCC[C@@H](C(=O)N[C@@H](CC(=O)O)C(=O)N[C@@H](Cc2ccccc2)C(=O)N[C@H](C(=O)N[C@@H](CC(N)=O)C(=O)N[C@@H](Cc2c[nH]c3ccccc23)C(=O)N[C@@H](CC(C)C)C(=O)N[C@@H](CC(C)C)C(=O)N[C@@H](C)C(=O)N[C@@H](CCC(N)=O)C(N)=O)C(C)C)NC(=O)[C@H](CCC(N)=O)NC(=O)[C@H](Cc2c[nH]cn2)NC1=O [mt-111] (H-HSQGTFTSDYSKYLDEIHQKDFVNWLLAQ-NH2; lactam 16-20; N-terminus assumed)	10.61	85.19	0.78						0.66	
CCCCCCCCCCCCCC(=O)NCCCC[C@H](NC(=O)[C@H](CC(=O)O)NC(=O)[C@H](CO)NC(=O)[C@@H](NC(=O)[C@H](Cc1ccccc1)NC(=O)[C@@H](NC(=O)CNC(=O)[C@H](CCC(=O)O)NC(=O)C(C)(C)NC(=O)[C@@H](N)Cc1ccc(O)cc1)[C@@H](C)O)[C@@H](C)O)C(=O)N[C@@H](CO)C(=O)N[C@H](C(=O)N[C@@H](Cc1ccc(O)cc1)C(=O)N[C@@H](CC(C)C)C(=O)N[C@@H](CC(=O)O)C(=O)N[C@@H](CCCCN)C(=O)N[C@@H](CCC(N)=O)C(=O)N[C@@H](C)C(=O)N[C@@H](C)C(=O)NC(C)(C)C(=O)N[C@@H](CCC(=O)O)C(=O)N[C@@H](Cc1ccccc1)C(=O)N[C@H](C(=O)N[C@@H](CC(N)=O)C(=O)N[C@@H](Cc1c[nH]c2ccccc12)C(=O)N[C@@H](CC(C)C)C(=O)N[C@@H](CC(C)C)C(=O)N[C@@H](C)C(=O)NCC(=O)NCC(=O)N1CCC[C@H]1C(=O)N[C@@H](CO)C(=O)N[C@@H](CO)C(=O)NCC(=O)N[C@@H](C)C(=O)N1CCC[C@H]1C(=O)N1CCC[C@H]1C(=O)N1CCC[C@H]1C(=O)N[C@@H](CO)C(N)=O)C(C)C)[C@@H](C)CC [mt-269] (H-Y[Aib]EGTFTSDK(Myristoyl)SIYLDKQAA[Aib]EFVNWLLAGGPSSGAPPPS-NH2; N-terminus assumed)				0.0136	144.85	183000	0.11	140.35		5.7
CSCC[C@H](NC(=O)[C@H](Cc1ccc(O)cc1)NC(=O)[C@H](CCCCN)NC(=O)[C@H](CO)NC(=O)[C@H](Cc1ccc(O)cc1)NC(=O)[C@H](CC(=O)O)NC(=O)[C@H](CO)NC(=O)[C@@H](NC(=O)[C@H](Cc1ccccc1)NC(=O)[C@@H](NC(=O)CNC(=O)[C@H](CCC(N)=O)NC(=O)[C@H](CO)NC(=O)[C@@H](N)Cc1ccc(O)cc1)[C@@H](C)O)[C@@H](C)O)C(=O)N[C@@H](CC(=O)O)C(=O)N[C@H]1CCC(=O)NCCCC[C@@H](C(=O)N[C@@H](CCC(=O)O)C(=O)N[C@@H](Cc2ccccc2)C(=O)N[C@H](C(=O)N[C@@H](CC(N)=O)C(=O)N[C@@H](Cc2c[nH]c3ccccc23)C(=O)N[C@@H](CC(C)C)C(=O)N[C@@H](CC(C)C)C(=O)N[C@@H](C)C(=O)NCC(=O)NCC(=O)N2CCC[C@H]2C(=O)N[C@@H](CO)C(=O)N[C@@H](CO)C(=O)NCC(=O)N[C@@H](C)C(=O)N2CCC[C@H]2C(=O)N2CCC[C@H]2C(=O)N2CCC[C@H]2C(=O)N[C@@H](CO)C(N)=O)C(C)C)NC(=O)[C@H](C)NC(=O)[C@H](C)NC(=O)[C@H](CCC(N)=O)NC1=O [mt-141] (H-YSQGTFTSDYSKYMDEQAAKEFVNWLLAGGPSSGAPPPS-NH2; lactam 16-20; N-terminus assumed)	36.78	269.33	10.04						0.16	
CC[C@H](C)[C@H](NC(=O)[C@H](CO)NC(=O)[C@H](Cc1ccc(O)cc1)NC(=O)[C@H](CC(=O)O)NC(=O)[C@H](CO)NC(=O)[C@@H](NC(=O)[C@H](Cc1ccccc1)NC(=O)[C@@H](NC(=O)CNC(=O)[C@H](CCC(=O)O)NC(=O)[C@H](C)NC(=O)[C@@H](N)Cc1ccc(O)cc1)[C@@H](C)O)[C@@H](C)O)C(=O)N[C@@H](Cc1ccc(O)cc1)C(=O)N[C@@H](CCSC)C(=O)N[C@@H](CC(=O)O)C(=O)N[C@H]1CCC(=O)NCCCC[C@@H](C(=O)N[C@@H](CC(=O)O)C(=O)N[C@@H](Cc2ccccc2)C(=O)N[C@H](C(=O)N[C@@H](CC(N)=O)C(=O)N[C@@H](Cc2c[nH]c3ccccc23)C(=O)N[C@@H](CC(C)C)C(=O)N[C@@H](CC(C)C)C(=O)N[C@@H](C)C(=O)N[C@@H](CCC(N)=O)C(N)=O)C(C)C)NC(=O)[C@H](CCC(N)=O)NC(=O)[C@H](Cc2c[nH]cn2)NC(=O)[C@H]([C@@H](C)CC)NC1=O [mt-98] (H-YAEGTFTSDYSIYMDEIHQKDFVNWLLAQ-NH2; lactam 16-20; N-terminus assumed)	1.42	0.01	25.00							
CCCCCCCCCCCCCC(=O)NCCCC[C@H](NC(=O)[C@H](CC(=O)O)NC(=O)[C@H](CO)NC(=O)[C@@H](NC(=O)[C@H](Cc1ccccc1)NC(=O)[C@@H](NC(=O)CNC(=O)[C@H](CCC(=O)O)NC(=O)C(C)(C)NC(=O)[C@@H](N)Cc1ccc(O)cc1)[C@@H](C)O)[C@@H](C)O)C(=O)N[C@@H](CO)C(=O)N[C@H](C(=O)N[C@@H](Cc1ccc(O)cc1)C(=O)N[C@@H](CC(C)C)C(=O)N[C@@H](CC(=O)O)C(=O)N[C@@H](CCCCN)C(=O)N[C@@H](CCC(N)=O)C(=O)N[C@@H](C)C(=O)N[C@@H](C)C(=O)NC(C)(C)C(=O)N[C@@H](CCC(=O)O)C(=O)N[C@@H](Cc1ccccc1)C(=O)N[C@H](C(=O)N[C@@H](CS)C(=O)N[C@@H](Cc1c[nH]c2ccccc12)C(=O)N[C@@H](CC(C)C)C(=O)N[C@@H](CC(C)C)C(=O)N[C@@H](C)C(=O)NCC(=O)NCC(=O)N1CCC[C@H]1C(=O)N[C@@H](CO)C(=O)N[C@@H](CO)C(=O)NCC(=O)N[C@@H](C)C(=O)N1CCC[C@H]1C(=O)N1CCC[C@H]1C(=O)N1CCC[C@H]1C(=O)N[C@@H](CO)C(N)=O)C(C)C)[C@@H](C)CC [mt-337] (H-Y[Aib]EGTFTSDK(Myristoyl)SIYLDKQAA[Aib]EFVCWLLAGGPSSGAPPPS-NH2; N-terminus assumed)				0.0082	74.39		0.02	115.00		8
